Experimental data published in US6762160B2, “Composition for removing biofilms comprising a detergent and a salt forming acid” (Universite de Montreal, priority 1998, dated 2004).
“Also recorded” adds a separate entry of the source.

What was measured:
[1] = system: mature biofilms on lumen of dental unit waterlines tubings; assay: Biofilm removal from dental unit waterline tubing pieces, binocular microscope 40x, arbitrary scale; assay type: cell-based, dental unit waterlines bacteria; conditions: for detergent capable of dislodging biofilms: different types of detergents tried; for RESULTS AFTER DISINFECTION 1 hour (biofilm scale): key: −: no biofilm; ++++: + ++ + : no significant removal of film; for RESULTS AFTER DISINFECTION 18 hours (biofilm scale): key: −: no biofilm; ++++: + ++ + : no significant removal of film
Experimental: Two-cm long pieces of dental unit waterlines tubings were used. These tubings were taken from functional dental units installed at the faculty of dentistry of the University of Montreal. […] The pieces were sectioned longitudinally with a sterile scalpel blade to expose the biofilm. Another series of tubings was left untouched. Sections of tubings were placed in sterile 5 ml disposable test tubes containing solutions to be tested.
After 1 or 18 hours without agitation at room temperature, tubings were rinsed three times with sterile water.

[2] = system: dental unit waterlines bacteria; assay: Antibacterial activity: growth in R2Am medium after disinfection of tubings;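 note: disinfected tubing pieces kept 7 days at room temperature in R2Am medium, then scored for presence or absence of bacterial growth by absorbance at 590 nm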
Experimental: To test the antibacterial activity, we used the same setup as above. After the 1 or 18 hour incubation, tubings were rinsed with sterile water. Pieces of tubings were dropped in sterile test tubes containing 4 ml of R2Am medium. Test tubes were capped and incubated for 7 days at room temperature. […] Data were recorded as presence or absence of growth with a spectrophotometer at λ=590 nm.

[3] = system: Mycobacterium sp.; assay type: cell-based
[4] = selected acid 1% with H2O2 5%, EDTA 1%, SDS 1%, pH 5,0, 18 hours contact, room temperature, no agitation
[5] = selected acid 1% with H2O2 5%, EDTA 1%, SDS 1%, pH 5,0, tubing incubated 7 days in R2Am, 590 nm
[6] = acid 1% in H2O2 5%/EDTA 1%/SDS 1% solution, pH 5.0, 1 hour or 18 hours
[7] = selected acid 1% with H2O2 5%, EDTA 1%, SDS 1%, pH 5,0, 1 hour contact, room temperature, no agitation

Row | Compound | RESULTS AFTER DISINFECTION Growth [2, 5] | acceptably performing acids: decontamination within the specified times [1, 6] | further results
1 | CC(N)C(=O)O (racemic) [DL-Alanine] | − |  | RESULTS AFTER DISINFECTION 18 hours (biofilm scale) [1, 4]: −
2 | NC(Cc1ccc(O)cc1)C(=O)O (racemic) [DL-Tyrosine] | − | sufficient decontamination | 
3 | O=C(O)CCC(=O)C(=O)O [2-Ketoglutaric Acid] |  |  | RESULTS AFTER DISINFECTION 1 hour (biofilm scale) ([1]; pH 5): −; RESULTS AFTER DISINFECTION 18 hours (biofilm scale) ([1]; pH 5): −; RESULTS AFTER DISINFECTION Growth ([2]; pH 5): −
4 | CC(=O)O [Acetic Acid] | − |  | salt-forming acid tried against biofilm ([1]; acetic acid 0.1% to 1%): very efficient; RESULTS AFTER DISINFECTION 1 hour (biofilm scale) [1, 7]: −; RESULTS AFTER DISINFECTION 18 hours (biofilm scale) [1, 4]: −
5 | O=C(O)CCCCC(=O)O [Adipic Acid] | − | sufficient decontamination | 
6 | O=C(O)c1ccccc1 [Benzoic Acid] |  |  | acceptably performing acids: decontamination within the specified times ([1]; pH 5): sufficient decontamination; RESULTS AFTER DISINFECTION Growth ([2]; pH 5): −
7 | O=C(O)C(=O)c1ccccc1 [Benzoylformic Acid] | − | sufficient decontamination | 
8 | O=C(O)CN(CCO)CCO [Bicine] | − | sufficient decontamination | 
9 | OB(O)O [Boric Acid (B(OH)3), Boric Acid] | − | sufficient decontamination | 
10 | O=C(O)CCl [Chloroacetic Acid] |  |  | RESULTS AFTER DISINFECTION 18 hours (biofilm scale) ([1]; pH 5): −; RESULTS AFTER DISINFECTION Growth ([2]; pH 5): −
11 | O=C(O)CC(O)(CC(=O)O)C(=O)O [Citric Acid] | − | sufficient decontamination | 
12 | N[C@H](Cc1ccccc1)C(=O)O [D-Phenylalanine] | − |  | 
13 | O=C(O)C(O)C(O)C(=O)O [D-Tartric acid] | − |  | 
14 | O=C(O)C(Cl)Cl [Dichloroacetic Acid] | − |  | acceptably performing acids: decontamination within the specified times ([1]; pH 5): sufficient decontamination
15 | O=CO [Formic Acid] |  |  | acceptably performing acids: decontamination within the specified times ([1]; pH 5): sufficient decontamination; RESULTS AFTER DISINFECTION Growth ([2]; pH 5): −
16 | O=C(O)/C=C/C(=O)O [Fumaric Acid] | − |  | RESULTS AFTER DISINFECTION 1 hour (biofilm scale) [1, 7]: −; RESULTS AFTER DISINFECTION 18 hours (biofilm scale) [1, 4]: −
17 | O=C[C@H](O)[C@@H](O)[C@H](O)[C@H](O)C(=O)O [Glucuronic Acid] | − | sufficient decontamination | 
18 | N[C@@H](CCC(=O)O)C(=O)O [Glutamic Acid] | − | sufficient decontamination | 
19 | NCC(=O)O [Glycine] | − | sufficient decontamination | 
20 | O=C(O)CO [Glycolic Acid] | − |  | RESULTS AFTER DISINFECTION 1 hour (biofilm scale) [1, 7]: −; RESULTS AFTER DISINFECTION 18 hours (biofilm scale) [1, 4]: −
21 | O=C(O)CNCC(=O)O [Iminodiacetic Acid] | − |  | RESULTS AFTER DISINFECTION 1 hour (biofilm scale) [1, 7]: −; RESULTS AFTER DISINFECTION 18 hours (biofilm scale) [1, 4]: −
22 | O=C1O[C@H]([C@@H](O)CO)C(O)=C1O [L-Ascorbic Acid] | − |  | RESULTS AFTER DISINFECTION 1 hour (biofilm scale) [1, 7]: ++++
23 | N[C@@H](CC(=O)O)C(=O)O [L-Aspartic Acid] | − |  | RESULTS AFTER DISINFECTION 18 hours (biofilm scale) [1, 4]: −
24 | N[C@@H](CO)C(=O)O [L-Serine] | − | sufficient decontamination | 
25 | N[C@@H](Cc1c[nH]c2ccccc12)C(=O)O [L-Tryptophan] |  |  | acceptably performing acids: decontamination within the specified times ([1]; pH 5): sufficient decontamination; RESULTS AFTER DISINFECTION Growth ([2]; pH 5): −
26 | CC(O)C(=O)O (centres unmarked) [Lactic Acid] | − |  | 

Row | Compound | RESULTS AFTER DISINFECTION Growth [2, 5] | acceptably performing acids: decontamination within the specified times [1, 6] | further results
27 | O=C(O)/C=C\C(=O)O [Maleic Acid] | − | sufficient decontamination | 
28 | O=C(O)CC(O)C(=O)O (centres unmarked) [Malic Acid] | − | sufficient decontamination | 
29 | O=C(O)CC(=O)O [Malonic Acid] | − |  | 
30 | O=C(O)C(O)c1ccccc1 (centres unmarked) [Mandelic Acid] | − |  | salt-forming acid tried against biofilm ([1]; mandelic acid 1% to 10%): success; RESULTS AFTER DISINFECTION 1 hour (biofilm scale) [1, 7]: −; RESULTS AFTER DISINFECTION 18 hours (biofilm scale) [1, 4]: −
31 | O=C(O)[C@@H](O)[C@H](O)[C@H](O)[C@@H](O)C(=O)O [Mucic Acid] | − |  | RESULTS AFTER DISINFECTION 1 hour (biofilm scale) [1, 7]: −; RESULTS AFTER DISINFECTION 18 hours (biofilm scale) [1, 4]: −
32 | O=C(O)CN(CC(=O)O)CC(=O)O [Nitrilotriacetic Acid] | − | sufficient decontamination | 
33 | O=C(O)C(=O)O [Oxalic Acid] | − | sufficient decontamination | 
34 | NC(=O)C(=O)O [Oxamic Acid] | − | sufficient decontamination | 
35 | O=C(O)Cc1ccccc1 [Phenylacetic Acid] | − | sufficient decontamination | 
36 | O=P(O)(O)O [Phosphoric Acid (H3PO4), Phosphoric Acid] | − |  | RESULTS AFTER DISINFECTION 18 hours (biofilm scale) [1, 4]: −
37 | O=C(O)c1ccccc1C(=O)O [Phthalic Acid] | − | sufficient decontamination | 
38 | CC(=O)C(=O)O [Pyruvic Acid] | − |  | RESULTS AFTER DISINFECTION 18 hours (biofilm scale) [1, 4]: −
39 | N[C@@H](C(=O)O)c1ccccc1 [R-2-Phenylglycine] | − |  | 
40 | CCCCCCCCCCCCOS(=O)(=O)[O-].[Na+] [SDS, Sodium dodecyl sulfate] |  |  | biofilm removal efficiency after 18 hours ([1]; SDS 0.15% with 6% hydrogen peroxide, HEEDTA 0.3%, acetic acid 0.1%, zinc sulfate heptahydrate 0.1%, pH adjusted to 5, 18 hours): perfect efficiency; biofilm removal activity after one hour ([1]; SDS 0.15% with 6% hydrogen peroxide, HEEDTA 0.3%, acetic acid 0.1%, zinc sulfate heptahydrate 0.1%, pH adjusted to 5, one hour, sulfate): very good activity; also recorded: did work well; cleaning efficacy within one hour ([1]; SDS 1%, within one hour): perfect cleaning efficacy; detergent capable of dislodging biofilms [1]: capable of dislodging biofilms
41 | O=C(O)c1ccccc1O [Salicylic Acid] | − | sufficient decontamination | 
42 | O=C(O)CCC(=O)O [Succinic Acid] | − | sufficient decontamination | 
43 | O=C(O)CNC(CO)(CO)CO [Tricine] | − | sufficient decontamination | 
44 | OO [hydrogen peroxide, Hydrogen peroxide] |  |  | killing activity of bactericide, even against Mycobacterium sp. [3]: broad host killing activity; also recorded: efficient; growth after treatment ([2]; hydrogen peroxide 5% in Table 1 solutions): total absence of growth
45 | Oc1ccccc1 [phenol] |  |  | killing activity of bactericide, even against Mycobacterium sp. [3]: efficient; bactericide tried in cleaning solution [2]: success
46 | OCl [sodium hypochlorite] |  |  | killing activity of bactericide, even against Mycobacterium sp. [3]: broad host killing activity; also recorded: efficient
47 | Ketopimelic Acid | − | sufficient decontamination | 
48 | Povidone-iodine |  |  | efficiency of bactericide combined to detergent ([1]; combined to the detergent Tween 20): significant efficiency; detergent capable of dislodging biofilms [1]: capable of dislodging biofilms; bactericide tried in cleaning solution [2]: success
49 | R-Chloromandelic Acid | − | sufficient decontamination | 
50 | Sodium cocoyl sarcosinate [SCS] |  |  | detergent capable of dislodging biofilms [1]: capable of dislodging biofilms
51 | Sodium n-decyl diphenylether disulfonate [SDDD] |  |  | detergent capable of dislodging biofilms [1]: capable of dislodging biofilms
52 | Tetrasodium EDTA |  |  | chelator tried against biofilms [1]: a certain degree of success
